Experimental data taken from patent EP2975030B1, “DIHYDROPYRIDAZINE-3,5-DIONE DERIVATIVE” (Chugai Seiyaku Kabushiki Kaisha, priority 2013, dated 2014).

Each compound was assayed on rat small-intestinal brush border membrane vesicles (assay: Inhibitory effect on 33PO4 uptake into rat small-intestinal brush border membrane vesicles (rapid filtration method)). Conditions: 1 µM test compound; 33PO4 uptake into rat small-intestinal BBMVs, 60 seconds.
Assay type: biochemical, Wistar female rat
Summary of the method: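 Uptake was terminated by ice-cold 110 mM NaCl, 1 mM KH2PO4, 10 mM HEPES (pH 7.5) buffer and immediate suction filtration, then washing. Using rat small-intestinal BBMVs, retained 33PO4 was quantified by liquid scintillation counting as transport activity.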

SMILES	Rate of uptake inhibition (%) (1 µM)
C[C@]12CCCN1N(Cc1ccc(OCCN3CCOCC3)c(F)c1F)C(=O)C(C(=O)Nc1ccc(C(F)(F)F)nc1-c1cncc(C(F)(F)F)c1)=C2O [Example 106]	79%
CN1N(Cc2ccc(OCCCOC[C@H](O)CO)c(F)c2F)C(=O)C(C(=O)Nc2ccc(C(F)(F)F)cc2-c2cc(C(F)(F)F)ncn2)=C(O)C12CCCC2 [Example 392]	47%
CN1N(Cc2ccc(OCCN3CCOCC3)c(F)c2F)C(=O)C(C(=O)Nc2ccc(C(F)(F)F)cc2-c2ccc(C(F)(F)F)nc2)=C(O)C1(C)C [Example 314, 2-[[2,3-Difluoro-4-(2-morpholin-4-ylethoxy)phenyl]methyl]-5-hydroxy-1,6,6-trimethyl-3-oxo-N-[4-(trifluoromethyl)-2-[6-(trifluoromethyl)pyridin-3-yl]phenyl]pyridazine-4-carboxamide]	72%
CN(CCOc1ccc(CN2C(=O)C(C(=O)Nc3ccc(C(F)(F)F)cc3-c3cc(C(F)(F)F)ncn3)=C(O)C3(CCCC3)N2C)c(F)c1F)C1COC1 [Example 412, 7-(2,3-Difluoro-4-(2-(methyl(oxetan-3-yl)amino)ethoxy)benzyl)-10-hydroxy-6-methyl-8-oxo-N-(4-(trifluoromethyl)-2-(6-(trifluoromethyl)pyrimidin-4-yl)phenyl)-6,7-diazaspiro[4.5]dec-9-ene-9-carboxamide]	52%
Cc1c(Cl)ncnc1-c1cc(C(F)(F)F)ccc1NC(=O)C1=C(O)[C@@]2(C)CCCN2N(Cc2cccc(F)c2F)C1=O [Example 69]	74%
CN1N(Cc2ccc(OCCCCCOC[C@H](O)CO)c(F)c2F)C(=O)C(C(=O)Nc2ccc(C(F)(F)F)cc2-c2ccc(C(F)(F)F)nc2)=C(O)C12CCCC2 [Example 388]	15%
Cc1cc(NC(=O)C2=C(O)[C@H]3CCCCN3N(Cc3cccc(F)c3)C2=O)c(C(F)(F)F)o1 [Example 15, (4aR)-1-[(3-Fluorophenyl)methyl]-4-hydroxy-N-[5-methyl-2-(tritluoromethyl)furan-3-yl]-2-oxo-5,6,7,8-tetrahydro-4aH-pyrido[1,2-b]pyridazine-3-carboxamide]	42%
C[C@]12CCCN1N(Cc1ccc(F)c(F)c1)C(=O)C(C(=O)Nc1cc(F)c(Br)c(F)c1)=C2O [Example 191]	87%
CN1N(Cc2ccc(OCCN3CCOCC3)c(F)c2F)C(=O)C(C(=O)Nc2ccc(C(F)(F)F)cc2-c2cc(C(F)(F)F)ncn2)=C(O)C1(C)C [Example 313, 2-[[2,3-Difluoro-4-(2-morpholin-4-ylethoxy)phenyl]methyl]-5-hydroxy-1,6,6-trimethyl-3-oxo-N-[4-(trifluoromethyl)-2-[6-(trifluoromethyl)pyrimidin-4-yl]phenyl]pyridazine-4-carboxamide]	65%
C[C@]12CCCN1N(Cc1cccc(F)c1F)C(=O)C(C(=O)Nc1ccc(Cl)cn1)=C2O [Example 79]	71%
COCCOCCOc1ccc(CN2C(=O)C(C(=O)Nc3ccc(C(F)(F)F)cc3-c3cc(C(F)(F)F)ncn3)=C(O)C3(CCC3)N2C)c(F)c1F [Example 401]	39%
COCCN1CC(Oc2ccc(CN3C(=O)C(C(=O)Nc4ccc(C(F)(F)F)cc4-c4cc(C(F)(F)F)ncn4)=C(O)C4(CCC4)N3C)c(F)c2F)C1 [Example 406, 6-[[2,3-Difluoro-4-[1-(2-methoxyethyl)azetidin-3-yl]oxyphenyl]methyl]-9-hydroxy-5-methyl-7-oxo-N-[4-(trifluoromethyl)-2-[6-(trifluoromethl)pyrimidin-4-yl]phenyl]-5,6-diazaspiro[3.5]non-8-ene-8-carboxamide]	27%
C[C@]12CCCN1N(Cc1cccc(F)c1F)C(=O)C(C(=O)Nc1ccc(C(F)(F)F)cc1-c1ncnc(Cl)c1Cl)=C2O [Example 70]	79%
COCCN(C)CCOc1c(-c2cccnc2)cc(CN2C(=O)C(C(=O)Nc3ccc(C(F)(F)F)cc3-c3cc(C(F)(F)F)ncn3)=C(O)C3(CCCC3)N2C)c(F)c1F [Example 440, 9-[[2,3-Difluoro-4-[2-[2-methoxyethyl(methyl)amino]ethoxy]-5-(3-pyridinyl)phenyl]methyl]-6-hydroxy-10-methyl-8-oxo-N-[4-(trifluoromethyl)-2-[6-(trifluoromethyl)pyrimidin-4-yl]phenyl]-9,10-diazaspiro[4.5]dec-6-ene-7-carboxamide]	28%
C[C@]12CCCN1N(Cc1cccc(F)c1F)C(=O)C(C(=O)Nc1ccc(Br)c(F)c1)=C2O [Example 28]	72%
COCCN(C)CCOc1c(I)cc(CN2C(=O)C(C(=O)Nc3ccc(C(F)(F)F)cc3-c3cc(C(F)(F)F)ncn3)=C(O)C3(CCCC3)N2C)c(F)c1F [Example 437, 7-[[2,3-Difluoro-5-iodo-4-[2-[2-methoxyethyl(methyl)amino]ethoxy]phenyl]methyl]-10-hydroxy-6-methyl-8-oxo-N-[4-(trifluoromethyl)-2-(6-(trifluoromethyl)pyrimidin-4-yl]phenyl]-6,7-diazaspiro[4.5]dec-9-ene-9-carboxamide]	45%
CN1[C@@H](C(C)(C)C)C(O)=C(C(=O)Nc2cccc(C(F)(F)F)n2)C(=O)N1Cc1cccc(F)c1F [Example 244]	71%
COC(=O)CN(C)c1ncc(-c2cc(C(F)(F)F)ccc2NC(=O)C2=C(O)[C@@]3(C)CCCN3N(Cc3cccc(F)c3F)C2=O)cc1C#N [Example 112]	43%
CN1[C@@H](C(C)(C)C)C(O)=C(C(=O)Nc2ccc(Br)c(C(F)(F)F)n2)C(=O)N1Cc1cccc(F)c1F [Example 242]	69%
COCCN1CCC[C@H]1COc1ccc(CN2C(=O)C(C(=O)Nc3ccc(C(F)(F)F)cc3-c3cc(C(F)(F)F)ncn3)=C(O)C3(CCC3)N2C)c(F)c1F [Example 404, 6-[[2,3-Difluoro-4-[[(2S)-1-(2-methoxyethyl)pirrolidin-2-yl]methoxy]phenyl]methyl]-9-hydroxy-5-methyl-7-oxo-N-[4-(trifluoromethyl)-2-[6-(trifluoromethyl)pyrimidin-4-yl]phenyl]-5,6-diazaspiro[3.5]non-8-ene-8-carboxamide]	43%
CCOc1cccc(-c2cc(C(F)(F)F)ccc2NC(=O)C2=C(O)[C@@]3(C)CCCN3N(Cc3cccc(F)c3F)C2=O)c1OC [Example 66]	96%
CC1(C)C(O)=C(C(=O)Nc2ccc(C(F)(F)F)cc2-c2cc(C(F)(F)F)ncn2)C(=O)N(Cc2cccc(F)c2F)N1c1ccccc1 [Example 299]	45%
CN1N(Cc2cccc(F)c2F)C(=O)C(C(=O)Nc2ccc(Br)c(C(F)(F)F)n2)=C(O)C12CCCC2 [Example 263]	66%
CN1N(Cc2ccc(OC3COC3)c(F)c2F)C(=O)C(C(=O)Nc2ccc(C(F)(F)F)cc2-c2cc(C(F)(F)F)ncn2)=C(O)C12CCC2 [Example 403, 6-(2,3-Difluoro-4-(oxetan-3-yloxy)benzyl)-9-hydroxy-5-methyl-7-oxo-N-(4-(trifluoromethyl)-2-(6-(trifluoromethyl)pyrimidin-4-yl)phenyl)-5,6-diazaspiro[3.5]non-8-ene-8-carboxamide]	71%
CC(CN1CCOCC1)Oc1ccc(CN2C(=O)C(C(=O)Nc3ccc(C(F)(F)F)cc3-c3cc(C(F)(F)F)ncn3)=C(O)C3(CCC3)N2C)c(F)c1F (stereo not shown) [Example 408]	47%
